# Source: patent US5840936A, “Aminosterol compounds useful as inhibitors of the sodium/proton exchanger (NHE)” (priority 1995, dated 1998)
# “Also recorded” adds a separate entry of the source.
# What was measured:
# [1] = tested on: chick embryo vitelline capillaries; test: Chick embryo vitelline capillary regression assay; assay type: in vivo; parameters: key to Vitelline capillary regression: +: Vascular reactivity; 0: No vascular reactivity; +/-: Equivocal reactivity
# Description: Using the chick embryo vitelline capillaries assay, compounds were tested for their ability to induce capillary regression. Each compound was applied in 0.1 ml of 15% Ficol 400 and PBS onto the embryo, and vascular regression was assessed after 60 minutes.
# The 3-day chick embryo consists of an embryonic disc from which numerous vessels emerge and return, forming a "FIG. 8"-shaped structure--the embryo in the center with vascular loops extending outward over both poles. […] Following a lag period of around 15 minutes, the constriction of continuity between capillary and secondary vessels, generally on the "venous" side, was observed. Continued pulsatile blood flow progressed, resulting in a "swelling" of the blind tube, followed by a pinching off of the remaining connection and formation of an enclosed vascular sac resembling a "blood island." This process progressed until only the largest vessels remained intact.
# B16 melanoma = test: Suppression of B16 melanoma growth in C57B mice; assay type: in vivo, mouse
# Description: The growth of B16 melanoma in C57B mice is dependent upon neovascularization.
# Using the growth of B16 melanoma cells in C57B mice, a recognized model for the evaluation of inhibitors of angiogenesis on the growth of cancers, the effects of subcutaneous, intraperitoneal and oral administration of squalamine were evaluated.
# Animals were implanted with B16 melanoma followed by treatment with compound 1436 or 1256 administered in a combined schedule or separately. […] Thus, a combination of these two compounds achieves a theraputic benefit in tumors dependent on neovascularization that may prevent metastatic spread.
# Mouse IV PK study = conditions: in vivo
# Description: To assess clearance, a mouse IV PK study was performed for compound 319 and squalamine. The compound was administered i.v. and blood samples were taken every 10 minutes. The concentration of the administered steroid was determined by HPLC analysis.
# [2] = tested on: Xenopus tadpoles, stage 59-60; test: Xenopus tadpole assay; conditions: 10 μg/ml
# rabbit NHE3 = rabbit NHE3 (Oryctolagus cuniculus, UniProt P26432); test: NHE3 inhibition, internal pH (BCECF-AM) in transfected PS120 fibroblasts
# Description: Internal pH was measured either following acid loading or in the absence of an acid-loading challenge, with the results shown in FIGS. 1A and 1B.
# Specifically, PS120 fibroblasts transfected with rabbit NHE3 were grown in supplemented Dulbecco's-modified Eagle's medium as described by Levine et al., J. Biol. Chem. 268, 1993, 25527-25535. […] For cells not acid-preloaded, the actual internal pH value was monitored as a function of time following addition of squalamine, with the results depicted in FIG. 1B.
# PS120 fibroblasts transfected with rabbit NHE3 were grown and acid preloaded by exposure to 40 mM NH4 Cl as described above in conjunction with FIGS. 1A and 1B. Internal cellular pH changes expressed as the rate of pH recovery as a function of restored extracellular sodium ion concentration following exposure to 10 μg/ml of the compound were assayed with the fluorescent dye BCECF-AM as described above.
# rabbit NHE1 = test: NHE1 inhibition, internal pH in PS120 fibroblasts expressing rabbit NHE1; assay type: cell-based; conditions: 5 μg/ml squalamine, acid-preloaded
# Description: (§1) PS120 fibroblasts transfected with rabbit or human NHEl were grown as described above.
# human NHE1 = test: NHE1 inhibition, internal pH in PS120 fibroblasts expressing human NHE1; assay type: cell-based; conditions: 5 μg/ml squalamine, acid-preloaded
# Description: as §1
# [3] = tested on: bovine pulmonary endothelial cells; test: Growth inhibition of endothelial cells in vitro; assay type: cell-based; conditions: 1 μg/ml
# [4] = tested on: human epithelial cell line MCF 10A; test: Growth inhibition of epithelial cells in vitro; assay type: cell-based; conditions: 10 μg/ml
# [5] = tested on: human foreskin fibroblasts; test: Growth inhibition of fibroblasts in vitro; assay type: cell-based; conditions: 10 μg/ml
# [6] = tested on: human microvascular cells; test: Inhibition of endothelial cell cord formation in vitro; assay type: cell-based; conditions: concentrations inhibiting cord formation
# Source text: Endothelial cells have the capacity in vitro to form tubular aggregates resembling capillaries in various early stages of formation. This conversion occurs under relatively specific conditions, in which essential growth factors along with an effective substratum are provided. It has been shown that both the interaction of growth factors with the endothelial cell and its attachment to a substratum activate the NHE. The activation of this exchanger is believed to be required for subsequent morphologic transformation of the endothelial cell into a multicellular tubular structure.
# To assess the effect of compounds on the cord-like structures formed by human microvascular cells when plated in the presence of VEGF (Vascular Endothelial Growth Factor) and basic fibroblast growth factor on a collagen matrix, a standard cord formation assay was used.
# [7] = tested on: chick chorioallantoic membrane capillaries; test: Chorioallantoic membrane (CAM) model, inhibition of capillary growth; assay type: in vivo; conditions: for Percentage positive, Assay 1 / Percentage positive, Assay 2 / Percentage positive, Mean: 3-day embryo
# Source text: The growing capillaries within the chorioallantoic membrane model (CAM model) have been used as a system in which to evaluate the effect of agents on their potential to inhibit new vessel growth. Neovascularization occurs most aggressively over the first week of embryonic development. Thereafter capillary growth is characterized by principally "elongation" rather than "de novo" formation.
# In the standard assay, agents are applied locally to a region of the embryo over which neovascularization will occur. Agents are assessed by their ability to inhibit this process, as evaluated by visual examination about 7 days after application. […] The assay utilized is described in detail in Auerbach et al., Pharm. Ther. 51, 1991, 1-11.
# human melanoma 1205Lu = test: Suppression of human melanoma in RAG-1 mice; assay type: in vivo
# Source text: As apparent from FIG. 5, melanoma 120SLu develops aggressively in RAG-1 mice after implantation.
# [8] = Fasting blood glucose in mice; assay type: in vivo, male CD-1 mice; conditions: total dose 20 mg/kg i.v. (2 × 10 mg/kg), 30 min. after 2d dose
# Description: To study the effect of steroid administrator or the NHE responsible for secretion of insulin, several of the aminosterols from shark liver were administered to fasting mice. Male CD-1 mice were assigned to one of four treatment groups. Whole blood glucose was tested using glucometer (Lifescan Glucometer II and One Touch test strips). Statistical analysis was via one-way analysis of variance (ANOVA) followed by subsequent Bonferonni's t-test.
# [9] = tested on: human coronary artery smooth muscle; test: Growth of human coronary artery smooth muscle in vitro; assay type: cell-based; conditions: in vitro
# Source text: Aminosterols of the invention may also have utility in inhibiting the growth factor mediated proliferation of smooth muscle within the artery. Following coronary angioplasty, reocclusion commonly occurs, secondary to reparative proliferation of the vascular smooth muscle within the wall of the surgically manipulated blood vessel. This process generally takes place over the course of 7-10 days. To evaluate whether an agent could prevent the growth factor mediated proliferation of smooth muscle within the artery, compound 1436 was evaluated in vitro for its effect on the proliferation of human coronary artery smooth muscle. Results for compound 1436 are shown in FIG. 13, and those for squalamine are shown in FIG. 14, with FIG. 15 being a composite logarithmic plot.
# ELC = ELC MTT; assay type: cell-based; conditions: Table II; read-out: ELC MTT, Minimum Effective Concentration
# [10] = tested on: Xenopus tadpoles, stage 59-60; conditions: 10 μg/mL
# [11] = tested on: human umbilical venous endothelial cells; test: LPS-induced neutrophil adherence to human umbilical venous endothelial cells; conditions: 10 μg, 1.0 μg, or 0.1 μg; LPS or TNF-α
# Description: In these experiments, approximately 2×10^5 human umbilical venous cells (passage 2-6) were plated per well. The cells were grown in serum-free media overnight. For induction, either TNF-α (40 ng/ml) was added to endothelial cells for 6 hours prior to adding neutrophils or LPS (100 ng/ml) was added for 4-6 hours. […] After activation of the endothelial cells, approximately 50×10^6 neutrophils were added per well. The plates were gently rocked for 30 minutes at room temperature, followed by removal of the media and washing in serum-free media three times and then photographing of each well. […] A monoclonal Ab to ICAM-1 was a positive control.
# [12] = 20 μg applied, some vascular irritation noted
# [13] = 40 μg applied, some vascular irritation noted
# Chain of rabbit NHE3 (P26432 30-832): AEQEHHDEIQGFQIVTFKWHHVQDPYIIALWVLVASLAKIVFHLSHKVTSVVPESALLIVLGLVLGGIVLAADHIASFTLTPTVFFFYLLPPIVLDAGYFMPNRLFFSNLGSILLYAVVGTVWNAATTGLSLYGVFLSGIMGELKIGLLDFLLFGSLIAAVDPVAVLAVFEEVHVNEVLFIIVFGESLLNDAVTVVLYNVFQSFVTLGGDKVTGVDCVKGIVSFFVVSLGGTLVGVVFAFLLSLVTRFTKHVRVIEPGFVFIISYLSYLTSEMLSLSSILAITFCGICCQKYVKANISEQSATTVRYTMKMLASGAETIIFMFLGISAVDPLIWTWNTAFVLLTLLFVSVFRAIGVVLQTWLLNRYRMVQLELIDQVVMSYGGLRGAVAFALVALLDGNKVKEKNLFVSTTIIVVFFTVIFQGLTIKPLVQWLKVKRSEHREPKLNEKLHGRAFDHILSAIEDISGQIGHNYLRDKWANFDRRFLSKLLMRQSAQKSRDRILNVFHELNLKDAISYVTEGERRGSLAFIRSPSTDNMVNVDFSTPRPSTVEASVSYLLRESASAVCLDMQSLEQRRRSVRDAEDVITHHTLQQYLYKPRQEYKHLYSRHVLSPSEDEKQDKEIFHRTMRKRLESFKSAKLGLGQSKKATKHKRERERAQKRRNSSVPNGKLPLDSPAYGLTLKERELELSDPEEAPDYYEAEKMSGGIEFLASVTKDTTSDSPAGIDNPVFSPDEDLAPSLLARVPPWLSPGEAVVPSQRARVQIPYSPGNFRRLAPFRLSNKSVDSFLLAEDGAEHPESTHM
compound,measurement,setting,value
C[C@H](CCC(=O)O)[C@H]1CC[C@H]2[C@@H]3CC[C@H]4C[C@@H](NCCCNCCCCN)CC[C@]4(C)[C@H]3CC[C@]12C [Compound 319],Vitelline capillary regression,[1]; 0.001 μg applied,+/-
same,Vitelline capillary regression,[1]; 0.01 μg applied,+
same,Vitelline capillary regression,[1]; 0.1 μg applied,+
same,Vitelline capillary regression,[1]; 1 μg applied,+
same,Vitelline capillary regression,[1]; 10 μg applied,+
same,Control of B16 in C57B mice,"B16 melanoma; compound 319, subcutaneous, intraperitoneal (FIG. 6 legend)",control of B16 in C57B mice to an extent almost comparable to squalamine
same,half-life,Mouse IV PK study,about 14 minute
same,"Tadpole assay, observed effects",[2],common vascular occlusive effect
same,Potency as an NHE inhibitor compared with squalamine,rabbit NHE3,superior to squalamine
CC(C)[C@@H](CC[C@@H](C)[C@H]1CC[C@H]2[C@@H]3[C@H](O)C[C@H]4C[C@@H](NCCCNCCCCN)CC[C@]4(C)[C@H]3CC[C@]12C)OS(=O)(=O)O [Compound 1256],Inhibition of rabbit NHE1,rabbit NHE1,no inhibitory activity; also recorded: lack of inhibition of rabbit sodium/proton exchanger isoform 1 (NHE1)
same,Inhibition of human NHE1,human NHE1,no inhibitory activity; also recorded: lack of inhibition of human NHE1
same,Growth inhibition of bovine pulmonary endothelial cells (BPE),[3],inhibited the growth of bovine pulmonary artery endothelial cells (BPE)
same,Growth inhibition of epithelial cells,[4],no effect
same,Growth inhibition of fibroblasts,[5],no effect
same,Effect on cell viability or proliferation,[6],does not appear to profoundly affect cell viability or proliferation
same,Inhibition of CAM vessel neovascularization,"[7]; 3-day CAM, 0.65 μg",inhibition of CAM vessel neovascularization
same,"Percentage positive, Assay 1",[7]; 0.65 μg applied,28%
same,"Percentage positive, Assay 1",[7]; 1.25 μg applied,18%
same,"Percentage positive, Assay 2",[7]; 1.25 μg applied,18%
same,"Percentage positive, Mean",[7]; 1.25 μg applied,18%
same,"Percentage positive, Assay 1",[7]; 2.5 μg applied,35%
same,"Percentage positive, Assay 2",[7]; 2.5 μg applied,18%
same,"Percentage positive, Mean",[7]; 2.5 μg applied,27%
same,"Percentage positive, Assay 1",[7]; 5.0 μg applied,91%
same,"Percentage positive, Assay 2",[7]; 5.0 μg applied,57%
same,"Percentage positive, Mean",[7]; 5.0 μg applied,74%
same,"Percentage positive, Mean",[7]; 20 μg applied,55%
same,"Percentage positive, Assay 1",[7]; [12],52%
same,"Percentage positive, Assay 2",[7]; [12],58%
same,"Percentage positive, Mean",[7]; 40 μg applied,32%
same,"Percentage positive, Assay 1",[7]; [13],50%
same,"Percentage positive, Assay 2",[7]; [13],13%
same,Percentage positive,"[7]; 13-day embryo, 5.0 μg applied",0/26
same,Inhibition of CAM vessel neovascularization,"[7]; 13-day old chick, ten times that amount",no inhibitory effect
same,Vitelline capillary regression,[1]; 0.001 μg applied,0
same,Vitelline capillary regression,[1]; 0.01 μg applied,+
same,Vitelline capillary regression,[1]; 0.1 μg applied,+
same,Vitelline capillary regression,[1]; 1 μg applied,+
same,Vitelline capillary regression,[1]; 10 μg applied,+
same,Hemorrhage / hemolysis in chick embryo,"[1]; 0.1 ml in 15% Ficol in PBS, listed as Squalamine",No hemorrhage was seen; also recorded: absence of hemolysis
same,Effect on chick embryo vessels,[1]; 3- to 5-day chick embryo,disrupt vitelline capillaries in 3- to 5-day chick embryos
same,"Chick embryo diss. assay, Minimum Effective Concentration",[1]; Table II,0.01 µg
same,Body weight and hematologic parameters,B16 melanoma; squalamine,no significant depression
same,Impact on tumor volume,B16 melanoma; squalamine 5 mg/kg/day,no significant impact on tumor volume
same,Tumor growth effect of single agent compared with combination,"B16 melanoma; squalamine 15 mg/kg/day, compound 1436 alone in a tolerable schedule",Neither administration of squalamine at 15 mg/kg/day nor compound 1436 alone in a tolerable schedule could achieve this effect
same,Suppression of tumor volume,"B16 melanoma; squalamine, subcutaneous, intraperitoneal or oral",dose-dependent suppression of tumor volume
same,Tumor growth after cessation of treatment,human melanoma 1205Lu,tumor growth continued at a rate similar to untreated controls
same,Suppression of growth of melanoma 1205Lu,"human melanoma 1205Lu; 10, 20, 40 mg/kg/d, listed as Squalamine",suppress the growth of melanoma 1205Lu in RAG-1 mice in a dose-dependent fashion; also recorded: clear suppression of tumor growth in a dose-dependent fashion
same,Fasting Blood Glucose Mean ± SEM,[8],65 ± 7.3 mg/dL
same,Suppression of growth of human coronary artery smooth muscle,[9],suppress in vitro the growth of human coronary artery smooth muscle
same,minimal effective concentration,ELC,13.2 µg/mL
same,Tadpole E (epithelial),[10],-
same,Tadpole GI (gastrointestinal),[10],-
same,Tadpole M (melanocytes),[10],-
same,Tadpole Mus (muscle),[10],-
same,Tadpole V (vascular),[10],+
same,"Tadpole assay, observed effects",[2],Vascular occlusion in fine capillaries of tail; also recorded: No effect on vascular flow through hands or feet
same,Tadpole time to death,[2],≤ 2 h
same,"Tadpole assay, observed effects",[2]; listed as squalamine,blood flow through the capillaries of the tail shut down; also recorded: unaltered blood flow through the fine capillaries of the hands and feet; also recorded: common vascular occlusive effect
same,Inhibition of NHE3,"rabbit NHE3; 5 μg/ml squalamine, acid-preloaded and not acid-preloaded cells",inhibited NHE3 with respect to proton concentration at both Km and Vmax levels
same,Effect on resting pH,"rabbit NHE3; 5 μg/ml, not acid-preloaded",causes the cell to drop to a lower pH in its presence before activation of the pump occurs
same,NHE isoform specificity,"rabbit NHE3; NHE3 vs NHE1, listed as squalamine","inhibits NHE3, but not NHE1; also recorded: specificity for NHE3 over NHE1"
same,Inhibition of neutrophil adherence,[11],no inhibition
